Usually pKd stands for the Kd on a negative log10 scale, so that one unit is a factor of ten.

This is an account of results in ChEMBL document CHEMBL3600360, “Fluorescent photoaffinity probes for mitotic protein kinase Aurora A” (Bioorg Med Chem Lett, 2015).

pKd: −log10 of the molar value. Active and inactive are the calls of the source. The rule behind the calls is not given here.

Assay [1] addresses T1, Aurora kinase A (Homo sapiens) (UniProt O14965).
T1 sequence (whole entry): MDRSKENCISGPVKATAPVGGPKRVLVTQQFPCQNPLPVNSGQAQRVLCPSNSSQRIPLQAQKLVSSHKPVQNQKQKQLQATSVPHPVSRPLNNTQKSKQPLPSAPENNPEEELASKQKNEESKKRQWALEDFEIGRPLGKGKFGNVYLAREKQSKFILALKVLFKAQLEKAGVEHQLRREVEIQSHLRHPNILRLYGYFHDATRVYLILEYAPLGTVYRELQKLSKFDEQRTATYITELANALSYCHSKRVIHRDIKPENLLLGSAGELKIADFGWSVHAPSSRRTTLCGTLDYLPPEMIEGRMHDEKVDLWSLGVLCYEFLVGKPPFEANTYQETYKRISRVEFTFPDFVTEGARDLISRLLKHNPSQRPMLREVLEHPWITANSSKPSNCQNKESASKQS
Briefly: Binding affinity to purified recombinant full-length Aurora A (unknown origin) assessed as covalent irreversible complex formation at 2.4 uM irradiated for 15 mins with near-UV light by SDS-PAGE and Western blot method.

Assay [2] has as its target T2, Aurora kinase A (Homo sapiens, UniProt O14965).
T2 sequence (O14965 whole entry): T1 sequence (whole entry)
Briefly: Binding affinity to purified recombinant full-length Aurora A (unknown origin) by fluorescence polarisation/anisotropy based equilibrium binding assay. For orientation: Fluorescence polarisation rises when a labelled molecule tumbles more slowly, as on binding a larger partner.

For assay [3], the target named is T1, Aurora kinase A (Homo sapiens). Briefly: Binding affinity to Aurora A in human HeLa cells assessed as covalent irreversible complex formation at 1 uM irradiated for 15 mins with near-UV light in presence of Aurora A inhibitor MLN8237 by SDS-PAGE and Western blot method. It counts as cell-based. Background: In western blotting, separated proteins are transferred to a membrane and probed.

For assay [4] the target is unchanged. Briefly: Binding affinity to 1 uM and >100 uM VX689-prre-treated purified recombinant full-length Aurora A (unknown origin) assessed as covalent irreversible complex formation at 1 uM irradiated for 15 mins with near-UV light by SDS-PAGE and Western blot method.
Assay [5] has the same target. Briefly: Binding affinity to Aurora A in human HeLa cells assessed as covalent irreversible complex formation at 1 uM irradiated for 15 mins with near-UV light by SDS-PAGE and Western blot method. It is filed as cell-based.
Assay [6] shares this target. Briefly: Inhibition of purified recombinant full-length Aurora A (unknown origin) assessed as residual enzyme activity at 2 mM using kemptide analogue substrate and 5 mM ATP in presence of TPX2 (1 to 43 residues).
Assay [7] has the same target. Briefly: Binding affinity to purified recombinant full-length Aurora A (unknown origin) assessed as covalent irreversible complex formation at 1.2 uM irradiated for 15 mins with near-UV light in presence of TPX2 by SDS-PAGE and Western blot method.
The target is the same in assay [8]. Briefly: Binding affinity to purified recombinant full-length Aurora A (unknown origin) assessed as covalent irreversible complex formation at 1.2 uM irradiated for 30 mins with near-UV light by SDS-PAGE and Western blot method.
Assay [9] shares this target. Briefly: Binding affinity to purified recombinant full-length Aurora A (unknown origin) assessed as covalent irreversible complex formation at 4.8 uM irradiated for 15 mins with near-UV light using 200 nM Aurora A by SDS-PAGE and Western blot method.
For assay [10] the target is unchanged. Briefly: Binding affinity to purified recombinant full-length Aurora A (unknown origin) assessed as covalent irreversible complex formation at 2.4 uM irradiated for 15 mins with near-UV light in presence of TPX2 by SDS-PAGE and Western blot method.

Consider `CCN1/C(=C/C=C/C2=[N+](CC)c3ccc(S(=O)(=O)O)cc3C2(C)C)C(C)(CCCC(=O)NCCCC[C@@H](NC(=O)[C@@H](CCCNC(=N)N)NC(=O)[C@@H](CCCNC(=N)N)NC(=O)[C@@H](CCCNC(=N)N)NC(=O)[C@@H](CCCNC(=N)N)NC(=O)[C@@H](CCCNC(=N)N)NC(=O)[C@@H](CCCNC(=N)N)NC(=O)[C@H](Cc2ccc(N=[N+]=[N-])cc2)NC(=O)[C@H](Cc2ccc(N=[N+]=[N-])cc2)NC(=O)CCNC(=O)[C@]2(Cc3cccc(Nc4nccs4)n3)CC[C@@H](Oc3cccc(Cl)c3F)CC2)C(N)=O)c2cc(S(=O)(=O)O)ccc21` (some centres not stated), for which the Activity in [1] was 18%; in [6], 71%. Also, in assay [2], the pKd was 8.24. In addition, the result in assay [3] and in assay [4] was inactive. The result in assay [5] was Active.
Consider `CCN1/C(=C/C=C/C2=[N+](CC)c3ccc(S(=O)(=O)O)cc3C2(C)C)C(C)(CCCC(=O)NCCCC[C@@H](NC(=O)[C@H](CCCNC(=N)N)NC(=O)[C@H](CCCNC(=N)N)NC(=O)[C@H](CCCNC(=N)N)NC(=O)[C@H](CCCNC(=N)N)NC(=O)[C@H](CCCNC(=N)N)NC(=O)[C@H](CCCNC(=N)N)NC(=O)[C@H](Cc2ccc(C(=O)c3ccccc3)cc2)NC(=O)[C@H](Cc2ccc(C(=O)c3ccccc3)cc2)NC(=O)CCCNC(=O)[C@]2(Cc3cccc(Nc4nccs4)n3)CC[C@@H](Oc3cccc(Cl)c3F)CC2)C(N)=O)c2cc(S(=O)(=O)O)ccc21` (some centres not stated), for which the Activity in [1] came out at 8.5%; in assay [6] it was 100%.
For `O=C(O)[C@]1(Cc2cccc(Nc3nccs3)n2)CC[C@@H](Oc2cccc(Cl)c2F)CC1`, the Activity in [6] turned out to be 67%.
As to `CN(C)c1ccc2c(-c3ccc(C(=O)NCCCC[C@H](NC(=O)[C@H](Cc4ccc(C(=O)c5ccccc5)cc4)NC(=O)[C@H](Cc4ccc(C(=O)c5ccccc5)cc4)NC(=O)CCCNC(=O)[C@]4(Cc5cccc(Nc6nccs6)n5)CC[C@@H](Oc5cccc(Cl)c5F)CC4)C(N)=O)cc3C(=O)O)c3ccc(=[N+](C)C)cc-3oc2c1`, the outcome in assay [7], in [3] and in assay [5] was Active. Further, the Activity in assay [8] stood at 9%; in [6], 100%.
As for `CN(C)c1ccc2c(-c3ccc(C(=O)NCCCC[C@H](NC(=O)[C@H](Cc4ccccc4)NC(=O)[C@H](Cc4ccccc4)NC(=O)CCCNC(=O)[C@]4(Cc5cccc(Nc6nccs6)n5)CC[C@@H](Oc5cccc(Cl)c5F)CC4)C(N)=O)cc3C(=O)O)c3ccc(=[N+](C)C)cc-3oc2c1`, in [7], the result was Active. In assay [2], the negative logarithm of the Kd (pKd) was 9.36. Also, the figures for the Activity in [8] and in [6] were 1.5% and 110%, respectively.
`CCN1/C(=C/C=C/C2=[N+](CC)c3ccc(S(=O)(=O)O)cc3C2(C)C)C(C)(CCCC(=O)NCCCC[C@@H](NC(=O)[C@@H](CCCNC(=N)N)NC(=O)[C@@H](CCCNC(=N)N)NC(=O)[C@@H](CCCNC(=N)N)NC(=O)[C@@H](CCCNC(=N)N)NC(=O)[C@@H](CCCNC(=N)N)NC(=O)[C@@H](CCCNC(=N)N)NC(=O)[C@H](Cc2ccc(C(=O)c3ccccc3)cc2)NC(=O)[C@H](Cc2ccc(C(=O)c3ccccc3)cc2)NC(=O)CCCNC(=O)[C@]2(Cc3cccc(Nc4nccs4)n3)CC[C@@H](Oc3cccc(Cl)c3F)CC2)C(N)=O)c2cc(S(=O)(=O)O)ccc21` (some centres not stated): the values for the Activity in assay [1] and in assay [6] were 8.1% and 100%, respectively. The pKd in [2] is 8.04.
With `CCN1/C(=C/C=C/C2=[N+](CC)c3ccc(S(=O)(=O)O)cc3C2(C)C)C(C)(CCCC(=O)NCCCC[C@@H](NC(=O)[C@H](CCCNC(=N)N)NC(=O)[C@H](CCCNC(=N)N)NC(=O)[C@H](CCCNC(=N)N)NC(=O)[C@H](CCCNC(=N)N)NC(=O)[C@H](CCCNC(=N)N)NC(=O)[C@H](CCCNC(=N)N)NC(=O)[C@@H](Cc2ccc(N=[N+]=[N-])cc2)NC(=O)[C@@H](Cc2ccc(N=[N+]=[N-])cc2)NC(=O)CCNC(=O)[C@]2(Cc3cccc(Nc4nccs4)n3)CC[C@@H](Oc3cccc(Cl)c3F)CC2)C(N)=O)c2cc(S(=O)(=O)O)ccc21` (some centres not stated), the Activity in assay [1] turned out to be 15%; in [6], 74%. Besides, the pKd in assay [2] is 8.21. The result in [3] and in assay [4] was inactive. Further, in [5], the outcome was Active.
With `CN(C)c1ccc2c(-c3ccc(C(=O)NCCCC[C@H](NC(=O)[C@H](Cc4ccc(N=[N+]=[N-])cc4)NC(=O)[C@H](Cc4ccc(N=[N+]=[N-])cc4)NC(=O)CCCNC(=O)[C@]4(Cc5cccc(Nc6nccs6)n5)CC[C@@H](Oc5cccc(Cl)c5F)CC4)C(N)=O)cc3C(=O)O)c3ccc(=[N+](C)C)cc-3oc2c1`, the Activity amounted to 40% in assay [1] and 100% in assay [6]. Also, the pKd in assay [2] is 8.72. Moreover, the outcome in assay [3], in assay [5] and in [10] was Active. For the same compound, the result in assay [9] and in [4] was inactive.
`CCN1/C(=C/C=C/C2=[N+](CC)c3ccc(S(=O)(=O)O)cc3C2(C)C)C(C)(CCCC(=O)NCCCC[C@@H](NC(=O)[C@@H](CCCNC(=N)N)NC(=O)[C@@H](CCCNC(=N)N)NC(=O)[C@@H](CCCNC(=N)N)NC(=O)[C@@H](CCCNC(=N)N)NC(=O)[C@@H](CCCNC(=N)N)NC(=O)[C@@H](CCCNC(=N)N)NC(=O)[C@@H](Cc2ccc(C(=O)c3ccccc3)cc2)NC(=O)[C@@H](Cc2ccc(C(=O)c3ccccc3)cc2)NC(=O)CCCNC(=O)[C@]2(Cc3cccc(Nc4nccs4)n3)CC[C@@H](Oc3cccc(Cl)c3F)CC2)C(N)=O)c2cc(S(=O)(=O)O)ccc21` (some centres not stated): the Activity in assay [1] is 6.9%; in assay [6], 110%. For the same compound, in assay [2], the pKd is 8.19.
As to `N=C(N)NCCC[C@@H](NC(=O)[C@@H](CCCNC(=N)N)NC(=O)[C@@H](CCCNC(=N)N)NC(=O)[C@@H](CCCNC(=N)N)NC(=O)[C@@H](CCCNC(=N)N)NC(=O)[C@@H](CCCNC(=N)N)NC(=O)CCCCCNC(=O)[C@]1(Cc2cccc(Nc3nccs3)n2)CC[C@@H](Oc2cccc(Cl)c2F)CC1)C(N)=O`, in assay [6], the Activity is 10%.
Turning to `CCN1/C(=C/C=C/C2=[N+](CC)c3ccc(S(=O)(=O)O)cc3C2(C)C)C(C)(CCCC(=O)NCCCC[C@@H](NC(=O)[C@@H](CCCNC(=N)N)NC(=O)[C@@H](CCCNC(=N)N)NC(=O)[C@@H](CCCNC(=N)N)NC(=O)[C@@H](CCCNC(=N)N)NC(=O)[C@@H](CCCNC(=N)N)NC(=O)[C@@H](CCCNC(=N)N)NC(=O)[C@@H](Cc2ccc(N=[N+]=[N-])cc2)NC(=O)[C@@H](Cc2ccc(N=[N+]=[N-])cc2)NC(=O)CCNC(=O)[C@]2(Cc3cccc(Nc4nccs4)n3)CC[C@@H](Oc3cccc(Cl)c3F)CC2)C(N)=O)c2cc(S(=O)(=O)O)ccc21` (stereo in doubt), the Activity in assay [1] is 11%; in [6] it was 96%. The pKd in assay [2] was 8.60. For the same compound, the outcome in [4] was inactive.
Consider `CN(C)c1ccc2c(-c3ccc(C(=O)NCCCOCCOCCOCCCNC(=O)[C@@H](Cc4ccc(N=[N+]=[N-])cc4)NC(=O)CCNC(=O)[C@]4(Cc5cccc(Nc6nccs6)n5)CC[C@@H](Oc5cccc(Cl)c5F)CC4)cc3C(=O)O)c3ccc(=[N+](C)C)cc-3oc2c1`, for which the pKd in [2] was 8.66. Also, the Activity in assay [8] was found to be 20%; in assay [6], 73%. In [4], the result was inactive.
